Assays:
Type in all cases: in vivo
Nilaparvata lugens [1] = assay: Process Example F: variation in number of Nilaparvata lugens after treatment
From the text: (§1) This process example gives an illustration of a process according to the invention which is useful for insecticidal treatment against Nilaparvata lugens.
(§2) The operating and measuring conditions are reproduced and adapted from Process Example B.
The active materials used, their application rates and the results obtained are collated in Table 6.

rice crop = assay: Process Example D: yield of a rice crop with control of the insects which ravage it; conditions: versus plot without treatment
Description: This process example according to the invention gives an illustration of the improvement in the yield of a rice crop obtained concomitantly with the control of the insects which ravage this rice crop.
In this treatment Process Example according to the invention, the yield of the crop was evaluated, along with the improvement in this yield obtained by carrying out the said process according to the invention simultaneously using fipronil as compound (A) and cypermethrin as compound (B).
as §2
The application rates and the results are collated in Table 4.

Nilaparvata lugens [2] = assay: Process Example C: insecticidal treatment against Nilaparvata lugens
From the text: (§3) The operating conditions were reproduced and adapted from those of Process Example A.
(§4) The active material(s) was(were) applied to the plots 25 days after planting out.
(§5) The rates of active materials applied and the results obtained 14 days after application are collated in Table 2.
This process example gives an illustration of a process according to the invention which is useful for insecticidal treatment against Nilaparvata lugens. The operating and measuring conditions are reproduced and adapted from Process Example B.
The application rates and the results are collated in Table 3.

Tryporyza incertulas [3] = assay: Process Example J: treatment of a rice crop against yellow rice stem borer, variation in dead plant cores; conditions: fipronil 25 g/ha
Description: The treatment process used was a process of treatment against yellow rice stem borer or Tryporyza incertulas during the infestation of a rice crop.
as §2
The active materials used, their application rates and the results obtained are collated in Table 10.
(§6) The measurement was carried out by counting the number of rice plant cores that were dead due to attack by the damaging insects treated, i.e. Tryporyza incertulas; thus, the greatest degree of reduction is obtained after carrying out the process according to the invention, whereas the untreated plots or plots treated in a known manner give substantially more mediocre degrees.

Scotinophara lurida = assay: Process Example K: treatment of a rice crop against Scotinophara lurida; conditions: fipronil 25 g/ha
From the text: The treatment process used was a process of treatment against Scotinophara lurida during the infestation of a rice crop.
as §2
The active materials used, their application rates and the results obtained are collated in Table 11.

Tryporyza incertulas [4] = assay: Process Example A: treatment of rice plots against yellow rice stem borer, count of dead plant cores; conditions: applied 7 days after planting out
Description: The treatment process carried out was a treatment process against yellow rice stem borer or Tryporyza incertulas during the infestation of a rice crop. For the comparison of the process according to the invention with known insecticidal treatment processes, four plots were prepared in a similar manner.
The first is left without treatment, the second is treated with fipronil as active material, the third with deltamethrin and the fourth with fipronil and deltamethrin in accordance with the process according to the invention.
After sowing and then growing, the rice seedlings are transplanted at the three- to four-leaf stage.
The various active materials were then applied 7 days after planting out.
The formulation used in this process according to the invention is identical to that of Composition Example A.
The application rates and the results obtained are collated in Table 1.
as §6, with “smallest number” for “greatest degree of reduction”, “while” for “whereas”, “larger numbers.” for “more mediocre degrees.”

Nilaparvata lugens [5] = assay: Process Example E: variation in number of Nilaparvata lugens after treatment
From the text: as §1, §2
The active materials used, their application rates and the results obtained are collated in Table 5.

Nephotettix apicalis [6] = assay: Process Example B: insecticidal treatment of a rice crop against leafhoppers; conditions: applied 25 days after planting out, 14 days after application
Description: This process example gives an illustration of a process according to the invention which is useful for insecticidal treatment against leafhoppers and in particular against Nephotettix apicalis.
This process according to the invention was carried out for the treatment of a rice crop.
as §3
The active materials used were fipronil and deltamethrin in a formulation in the form of granules according to Composition Example A.
as §4, §5

Nilaparvata lugens [7] = assay: Process Example I: variation in number of Nilaparvata lugens after treatment; conditions: fipronil 25 g/ha
From the text: as §1, §2
The active materials used, their application rates and the results obtained are collated in Table 9.

Nilaparvata lugens [8] = assay: Process Example H: variation in number of Nilaparvata lugens after treatment; conditions: fipronil 25 g/ha
From the text: as §1, §2
The active materials used, their application rates and the results obtained are collated in Table 8.

Nephotettix apicalis [9] = assay: Process Example G: variation in number of Nephotettix apicalis after treatment
From the text: This process example gives an illustration of a process according to the invention which is useful for insecticidal treatment against Nephotettix apicalis. The operating and measuring conditions are reproduced and adapted from Process Example B.
The active materials used, their application rates and the results obtained are collated in Table 7.

In the case of CC1(C)C(C=C(Cl)Cl)C1C(=O)OC(C#N)c1cccc(Oc2ccccc2)c1 [cypermethrin, (R,S)-α-cyano-3-phenoxybenzyl (1RS,3RS;1RS,3SR)-3-(2,2-dichlorovinyl)-2,2-dimethylcyclopropanecarboxylate], the “Degree of variation in the number of damaging insects 3 days after application” value (Nilaparvata lugens [1]; cypermethrin 12.5 g/ha) is reported as −27%, the “Degree of variation in the number of damaging insects 7 days after application” value (Nilaparvata lugens [1]; cypermethrin 12.5 g/ha) is reported as “+13%” and the “Improvement in the yield of the plot (%)” value (rice crop; cypermethrin 12.5 g/ha) is reported as 78%. It also gave an Insecticidal efficacy (Nilaparvata lugens [2]; cypermethrin 12.5 g/ha) of 21%.

With N#Cc1nn(-c2c(Cl)cc(C(F)(F)F)cc2Cl)c(N)c1[S+]([O-])C(F)(F)F (stereo not shown) [fipronil, 5-amino-3-cyano-1-(2,6-dichloro-4-trifluoromethylphenyl)-4-trifluoromethylsulphinylpyrazole] the “Degree of variation in the number of dead plant cores” value (Tryporyza incertulas [3]) was −35%, the “Degree of variation in the number of damaging insects 1 day after treatment” value (Scotinophara lurida; 1 day) was −43% and the “Degree of variation in the number of damaging insects 3 days after treatment” value (Scotinophara lurida; 3 days) was −67%. For the same compound, the “Degree of variation in the number of damaging insects 14 days after treatment” value (Scotinophara lurida; 14 days) was −45%, the “Degree of variation in the number of damaging insects 3 days after application” value (Nilaparvata lugens [1]; fipronil 25 g/ha) was “+33%” and the “Degree of variation in the number of damaging insects 7 days after application” value (Nilaparvata lugens [1]; fipronil 25 g/ha) was “+11%”. For the same compound, the “Proportion of dead plant cores found” value (Tryporyza incertulas [4]; fipronil 10 g/ha) was 56%, the “Degree of variation in the number of damaging insects 3 days after application” value (Nilaparvata lugens [5]; fipronil 25 g/ha) was “+33%” and the “Degree of variation in the number of damaging insects 7 days after application” value (Nilaparvata lugens [5]; fipronil 25 g/ha) was “+11%”. For the same compound, the “Improvement in the yield of the plot (%)” value (rice crop; fipronil 10 g/ha) was 188%, the Insecticidal efficacy (Nephotettix apicalis [6]; fipronil 25 g/ha) was 16% and the Insecticidal efficacy (Nilaparvata lugens [2]; fipronil 10 g/ha) was 78%. For the same compound, the “Degree of variation in the number of damaging insects 7 days after application” value (Nilaparvata lugens [7]) was “+19%”, the “Degree of variation in the number of damaging insects 1 day after application” value (Nilaparvata lugens [8]; 1 day) was −15% and the “Degree of variation in the number of damaging insects 3 days after application” value (Nilaparvata lugens [8]; 3 days) was −8%. The “Degree of variation in the number of damaging insects 7 days after application” value (Nilaparvata lugens [8]; 7 days) was −16%, the “Degree of variation in the number of damaging insects 14 days after application” value (Nilaparvata lugens [8]; 14 days) was “+40%” and the “Degree of variation in the number of damaging insects 1 day after application” value (Nephotettix apicalis [9]; fipronil 25 g/ha) was “+50%”. For the same compound, the “Degree of variation in the number of damaging insects 3 days after application” value (Nephotettix apicalis [9]; fipronil 25 g/ha) was “+83%” and the “Degree of variation in the number of damaging insects 7 days after application” value (Nephotettix apicalis [9]; fipronil 25 g/ha) was “+183%”.

CC1(C)[C@H](C(=O)O[C@H](C#N)c2cccc(Oc3ccccc3)c2)[C@@H]1C=C(Br)Br [deltamethrin, (S)-α-cyano-3-phenoxybenzyl (1R,3R)-3-(2,2-dibromovinyl)-2,2-dimethylcyclopropanecarboxylate] was tested, and the “Proportion of dead plant cores found” value (Tryporyza incertulas [4]; deltamethrin 6 g/ha) was 66%, the “Degree of variation in the number of damaging insects 3 days after application” value (Nilaparvata lugens [5]; deltamethrin 6 g/ha) was “+27%” and the “Degree of variation in the number of damaging insects 7 days after application” value (Nilaparvata lugens [5]; deltamethrin 6 g/ha) was 0%. For the same compound, the Insecticidal efficacy (Nephotettix apicalis [6]; deltamethrin 6 g/ha) was 6%, the “Degree of variation in the number of damaging insects 1 day after application” value (Nephotettix apicalis [9]; deltamethrin 6 g/ha) was −13% and the “Degree of variation in the number of damaging insects 3 days after application” value (Nephotettix apicalis [9]; deltamethrin 6 g/ha) was “+25%”. For the same compound, the “Degree of variation in the number of damaging insects 7 days after application” value (Nephotettix apicalis [9]; deltamethrin 6 g/ha) was “+75%”.
